From PMC5161573 (Nature, 2016)

Target: α4β2 nicotinic receptor (α4 subunit) (Homo sapiens, UniProt P17787+P43681, P17787:INS355ER/P17787:DEL356-441/P43681:INS364ER/P43681:DEL365-581)

SMILES: CN1CCC[C@H]1c1cccnc1 [nicotine]
- X-ray co-crystal structure at 3.9 Å: Nicotine binds in the classical neurotransmitter site at the α-β interface, almost fully buried from solvent.
